# Source: patent publication US20240208895A1, “BRANCHED-CHAIN AMINO ACID DERIVATIVES TO TREAT DISEASE” (INTRABIO LTD., priority 2021, published 2024)
# Read-outs that look alike come from different tables or passages of the source.
# Key:
# [1] = biological target: T1, LAT1 (Homo sapiens, UniProt Q01650); assay: LAT1 transporter-mediated cellular uptake (substrate test); assay type: cell-based; conditions: uptake 3 min, 37° C.
# T1 construct: expressed in transfected cells
# Protocol: DMSO (0.5%) was the solvent control (SC) and the known inhibitor for the positive control (PC) was JPH203 (10 μM). Data were fit to either the Michaelis-Menten equation for uptake or the Hill equation for inhibition using the solvent control to define the top and the positive control inhibitor to define the bottom. Symbols represent the mean±SEM, n=3.
# Human OAT1 (SLC22A6) and OAT3 (SLC22A8) overexpressing HEK-293 cells and control cells without transfected transporter (Corning® TransportoCells™) are plated to 24-well plates and cellular uptake of 10 to 100 μg/mL of a Compound of the Disclosure is measured in the absence and presence of transporter inhibitors. Uptake of a Compound of the Disclosure into control cells is measured only without chemical inhibitors. […] Cells are grown in DMEM (Gibco 4196, high glucose, without sodium pyruvate) supplemented with MEM non-essential amino acids and 10% fetal bovine serum. Cells are re-fed with fresh medium after attachment (4-6 hours post-seeding). Cell are plated at a density of 4×10^5/well in 24-well plates coated with poly-D-lysine. Transporter assays are conducted in 400 μL of HBSS supplemented with 10 mM Hepes, pH 7.4
# The known probe substrates used as positive controls are 3 μM chlorothiazide for OAT1, 2 μM estrone-3-sulfate for OAT3, 10 μM gabapentin for LAT1, 50 μM Gly-Sar for PepT1, 500 μM thiophene-2-glyoxylic acid for MCT1. […]
# [2] = biological target: T2, human transporter MCT1 (Homo sapiens, UniProt P53985); assay: Human MCT1-mediated transport in MDCK-II cells (Example 9); assay type: cell-based; conditions: MDCK-II cells expressing human MCT1, pH 5.5, 1 minute, normalized to Vmax of thiophene-2-glyoxylic acid
# T2 construct: expressed in transfected cells; host or cells: MDCK-II
# T2 sequence (P53985 1-500): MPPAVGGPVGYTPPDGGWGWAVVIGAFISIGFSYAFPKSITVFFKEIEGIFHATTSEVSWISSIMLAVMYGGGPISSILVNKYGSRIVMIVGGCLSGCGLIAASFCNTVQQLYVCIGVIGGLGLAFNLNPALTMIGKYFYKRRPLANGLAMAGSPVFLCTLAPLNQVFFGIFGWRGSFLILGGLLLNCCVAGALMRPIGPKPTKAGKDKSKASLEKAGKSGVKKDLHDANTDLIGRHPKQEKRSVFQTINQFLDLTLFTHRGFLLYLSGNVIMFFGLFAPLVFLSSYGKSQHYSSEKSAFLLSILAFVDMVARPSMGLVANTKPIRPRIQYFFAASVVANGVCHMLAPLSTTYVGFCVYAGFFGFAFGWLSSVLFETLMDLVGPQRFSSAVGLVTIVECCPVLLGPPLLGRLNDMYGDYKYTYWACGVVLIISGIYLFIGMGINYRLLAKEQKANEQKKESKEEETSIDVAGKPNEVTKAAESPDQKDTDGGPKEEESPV
# Protocol: Representative Compounds of the Disclosure are tested in (i) MDCK-II cells expressing human transporter MCT1; and (ii) MDCK-II cells transfected with a control vector (GFP) as control cells for human transporter MCT1. 2-Thiophene-glyoxylic acid (TPGA) is the positive control for transport.
# • 1. A stock solution is prepared with the test article (Compound of the Disclosure) in DMSO or in HBSS-Bis-Tris. • 2. Final assay solutions of probe substrate or test article contain 0.5% (v/v) DMSO (vehicle control). • 3. Test article concentrations are 10 μM, 30 μM, 100 μM, 300 μM, 1000 μM, 3000 μM, and 10000 μM.
# MDCK-II cells are maintained in DMEM with low glucose and 10% FBS. Cells passages up to 40 are seeded at 60K±10K cells/well on 96-well, transwell membrane plates approximately 24 hours before transfection. Transport assays are carried out approximately 48 hours after transfection.
# • 1. Test system: • a. Test system: 96-well cell culture plate with wells containing a monolayer of MDCK-II cells grown on a permeable support and a corresponding 96-well receiver tray. Cell plates are maintained at 37° C. in 5% CO2 atmosphere prior to initiation of the transport experiment. • b. Pre-incubation is conducted in HBSS, pH 7.4. Transport experiments are conducted in HBSS with Bis-Tris, pH 5.5, without phenol red. Pre-incubation and incubation are conducted at ambient temperatures. • c. Each condition is run in triplicate wells. • d. […] The result from the control cells is used to correct for substrate permeation by routes other than the transporter being investigated in the study. • 2. Prepare the 96-well plate as follows: • a. Wash the basal side of the culture plate insert with HBSS three times. After the final wash, blot the basal side of the wells and keep this side dry. • b. Wash the culture plate wells with HBSS three times. The wells of the culture plate serve as the apical compartment. • 3. Aspirate the final wash from the culture plate. The wells of the culture plate serve as the apical compartment. Add 100 μL of HBSS pH 7.4 pre-incubation buffer containing vehicle to the apical compartments. • 4. Incubate the plates with orbital shaking at approximately 60 RPM for the pre-incubation time specified in Table 1 of this protocol. • 5. Aspirate the pre-incubation buffer from the apical compartment of the plates. Add 100 μL of the experimental buffer that is prepared as follows and maintained at ambient temperatures. • a. For the probe substrate transport assay, the HBSS with Bis-Tris, pH 5.5 in each well contains the probe substrate at 500 μM (positive control for transport) and vehicle control. • b. For the test article assays, the HBSS with Bis-Tris, pH 5.5 in each well contains the test article at 10 μM, 30 μM, 100 μM, 300 μM, 1000 μM, 3000 μM, and 10000 μM. • 6. Incubate at ambient temperature with orbital shaking at approximately 60 RPM for the incubation time of 1 minute. • 7. […]
# • 1. The amount of radiolabeled probe substrate will be quantified with radiometric detection on a 1450 Microbeta (Perkin-Elmer). • 2. The amount of non-radiolabeled probe substrate or test article will be quantified by LC-MS/MS. • 3. […] For uptake assays, the net transporter-mediated uptake rate (V) of the substrate by each SLC transporter will be calculated as follows:
# [formula] • 5. For transport kinetics assessment, Km and Vmax will be calculated by non-linear regression using the Michaelis-Menten equation. • 6. […]
# [3] = biological target: T3, monocarboxylate transporter (MCT1) (Homo sapiens, UniProt P53985); assay: Inhibition of MCT1 uptake of known substrate 2-thiophene glyoxylate; assay type: cell-based; design: expressed in transfected cells
# T3 sequence (P53985 1-500): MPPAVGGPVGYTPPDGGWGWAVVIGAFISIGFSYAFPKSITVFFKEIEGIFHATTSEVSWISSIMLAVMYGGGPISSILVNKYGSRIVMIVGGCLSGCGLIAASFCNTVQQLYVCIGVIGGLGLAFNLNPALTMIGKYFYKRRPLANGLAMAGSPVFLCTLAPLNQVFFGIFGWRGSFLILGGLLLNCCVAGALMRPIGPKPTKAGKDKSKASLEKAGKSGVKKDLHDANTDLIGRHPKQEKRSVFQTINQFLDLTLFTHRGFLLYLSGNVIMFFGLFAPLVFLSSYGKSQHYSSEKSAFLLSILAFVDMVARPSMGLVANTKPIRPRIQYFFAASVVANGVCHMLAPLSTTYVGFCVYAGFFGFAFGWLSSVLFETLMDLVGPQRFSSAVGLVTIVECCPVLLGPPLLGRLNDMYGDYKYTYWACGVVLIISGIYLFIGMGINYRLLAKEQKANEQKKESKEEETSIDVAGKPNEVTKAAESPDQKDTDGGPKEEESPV
# Protocol: FIG. 4(c) is a line graph showing concentration-inhibition curves for the inhibition of uptake of the known substrate 2-thiophene glyoxylate (500 μM) for MCT1. DMSO (0.5%) was the solvent control (SC) and the known inhibitor phloretin (500 μM) was the positive control (PC).
# FIG. 4(d) is a line graph showing concentration-inhibition curves for the inhibition of uptake of the known substrate 2-thiophene glyoxylate (500 μM) for MCT1. DMSO (0.5%) was the solvent control (SC) and the known inhibitor phloretin (500 μM) was the positive control (PC).
# The known probe substrates used as positive controls are 3 μM chlorothiazide for OAT1, 2 μM estrone-3-sulfate for OAT3, 10 μM gabapentin for LAT1, 50 μM Gly-Sar for PepT1, 500 μM thiophene-2-glyoxylic acid for MCT1.
# The IC50 value for the test item is determined by fitting the Hill equation in the following form:
# where A % is the percent activity remaining (the mean cellular uptake observed in the solvent control sample set to 100% and the mean cellular uptake observed in the presence of the positive control inhibitor set to 0%), Top and Bottom are the upper and lower plateau of A %. [I] is the inhibitor concentration and IC50 is the inhibitor concentration where the remaining activity is at the midpoint between the Top and Bottom.
# [4] = test system: glycosphingolipid (GSL) biosynthesis; conditions: LSDs; cited from earlier work
# [5] = Protocol: (§1) A Compound of the Disclosure is incubated at 1 μM, 10 μM and 100 μM with pooled liver S9 fractions from human (mixed gender) and mouse (CD1) at 1.5 mg/mL in 300 μL buffer containing phosphate 100 mM, MgCl2 2 mM, pH 7.4 at 37° C. for 0, 10, 20, 40, 60 min.
# (§2) Enzyme kinetic data for uptake and metabolism of a Compound of the Disclosure is analysed by fitting the Michaelis-Menten equation to the data. V0=Vmax[S]/Km+[S], where V0 is initial velocity, [S] is substrate concentration, Vmax is maximum velocity and Km is substrate concentration at half Vmax. All fitting is performed using GraphPad Prism 8.4 software (GraphPad Software Inc). No weighting scheme is applied.
# [6] = remark: listed apart in the source
# Protocol: as §1, §2
# [7] = substrate: CC(=O)N[C@H](CC(C)C)C(=O)O; assay: cells, lysate or membranes; conditions: other: uptake 1 min, room temperature
# T1 sequence (Q01650 whole entry): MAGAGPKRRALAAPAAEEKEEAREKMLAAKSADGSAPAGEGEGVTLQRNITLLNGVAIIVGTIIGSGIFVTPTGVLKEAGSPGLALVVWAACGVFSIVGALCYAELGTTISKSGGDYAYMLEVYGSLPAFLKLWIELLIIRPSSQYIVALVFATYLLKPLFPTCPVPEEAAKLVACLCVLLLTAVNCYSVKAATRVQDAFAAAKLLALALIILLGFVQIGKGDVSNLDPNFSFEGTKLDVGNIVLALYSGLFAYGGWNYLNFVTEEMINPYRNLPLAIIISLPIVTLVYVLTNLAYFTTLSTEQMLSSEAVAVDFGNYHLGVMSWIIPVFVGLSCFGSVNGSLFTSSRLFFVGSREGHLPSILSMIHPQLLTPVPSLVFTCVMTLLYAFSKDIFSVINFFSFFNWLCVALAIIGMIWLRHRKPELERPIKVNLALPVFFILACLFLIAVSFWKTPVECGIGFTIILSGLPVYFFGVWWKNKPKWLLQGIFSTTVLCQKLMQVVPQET
# T1 sequence (P08195 102-630 partner): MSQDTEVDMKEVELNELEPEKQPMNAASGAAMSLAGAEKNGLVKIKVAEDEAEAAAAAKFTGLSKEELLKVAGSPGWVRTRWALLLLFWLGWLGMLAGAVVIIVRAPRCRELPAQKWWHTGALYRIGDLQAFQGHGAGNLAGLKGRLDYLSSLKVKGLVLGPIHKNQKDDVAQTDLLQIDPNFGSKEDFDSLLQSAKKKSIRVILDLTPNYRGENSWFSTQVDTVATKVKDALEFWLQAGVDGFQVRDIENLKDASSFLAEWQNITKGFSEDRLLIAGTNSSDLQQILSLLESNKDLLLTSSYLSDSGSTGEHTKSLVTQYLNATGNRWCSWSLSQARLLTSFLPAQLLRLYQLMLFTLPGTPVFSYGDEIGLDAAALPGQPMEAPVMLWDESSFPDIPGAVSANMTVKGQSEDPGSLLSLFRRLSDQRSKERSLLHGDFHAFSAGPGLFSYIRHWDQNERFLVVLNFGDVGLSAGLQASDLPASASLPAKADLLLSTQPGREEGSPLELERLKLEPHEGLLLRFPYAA
molecule,measurement,setting,value
CC(=O)N[C@@H](CC(C)C)C(=O)O [N-acetyl-leucine],substrate of LAT1 (uptake),[1],neither a substrate
CCC(=O)N[C@H](C(=O)O)[C@@H](C)CC [N-propionyl-L-isoleucine],uptake mediated by MCT1,[2],transported
CC(=O)N[C@H](CC(C)C)C(=O)O [N-acetyl-D-leucine],Ki,"[3]; assuming competitive inhibition, read-out: affinity (Ki) for MCT1, Cheng-Prusoff equation",1.6 mM
same,IC50,[3]; probe substrate 2-thiophene glyoxylate 500 μM,11 mM
CCCCN1C[C@H](O)[C@@H](O)[C@H](O)[C@H]1CO [miglustat],benefit in clinical trial of substrate reduction therapy,[4],Some benefit
COC(=O)[C@H](CC(C)C)NC(C)=O [N-acetyl-L-leucine methyl ester],uptake mediated by MCT1,[2],greatly reduced transport
CCC(=O)N[C@H](C(=O)O)C(C)C [N-propionyl-L-valine],uptake mediated by MCT1,[2],transported
[2H]C([2H])([2H])C([2H])(C([2H])([2H])[2H])C([2H])([2H])C([2H])(NC(C)=O)C(=O)O (racemic) [N-acetyl-DL-[^2H10]leucine],"Vmax, metabolism",[5],6.8 µmol/min/mg
same,"disappearance, asymptote as % of the initial concentration",[5],~50%
same,"Vmax, metabolism",[6],2.6 µmol/min/mg
same,"disappearance, asymptote as % of the initial concentration",[6],~50%
COC(=O)[C@@H](NC(C)=O)C(C)C [N-acetyl-L-valine methyl ester],uptake mediated by MCT1,[2],greatly reduced transport
monocarboxylate transporter (MCT1) (Homo sapiens) (protein) MPPAVGGPVGYTPPDGGWGWAVVIGAFISIGFSYAFPKSITVFFKEIEGIFHATTSEVSWISSIMLAVMYGGGPISSILVNKYGSRIVMIVGGCLSGCGLIAASFCNTVQQLYVCIGVIGGLGLAFNLNPALTMIGKYFYKRRPLANGLAMAGSPVFLCTLAPLNQVFFGIFGWRGSFLILGGLLLNCCVAGALMRPIGPKPTKAGKDKSKASLEKAGKSGVKKDLHDANTDLIGRHPKQEKRSVFQTINQFLDLTLFTHRGFLLYLSGNVIMFFGLFAPLVFLSSYGKSQHYSSEKSAFLLSILAFVDMVARPSMGLVANTKPIRPRIQYFFAASVVANGVCHMLAPLSTTYVGFCVYAGFFGFAFGWLSSVLFETLMDLVGPQRFSSAVGLVTIVECCPVLLGPPLLGRLNDMYGDYKYTYWACGVVLIISGIYLFIGMGINYRLLAKEQKANEQKKESKEEETSIDVAGKPNEVTKAAESPDQKDTDGGPKEEESPV,Km,[7],1000 µM
